US10251819B2, “Amphiphilic polymer” (LG Chem, Ltd., priority 2015, dated 2019)

Experiment: Percutaneous absorption test of genistein-loaded amphiphilic polymer solution, Franz diffusion cell
Format: in vitro ADME, porcine
Description: The percutaneous absorption of genistein of the amphiphilic polymer solution in which genistein was loaded and which was prepared as above was evaluated using porcine skin (2×2 cm, thickness: 1000 μm) and a Franz diffusion cell (FIG. 2). A phosphate buffered saline (PBS) solution containing 30 wt % of dipropylene glycol (DPG) was used as an aqueous solution (acceptor solution) to maintain a sink condition with respect to genistein. 0.2 g of the amphiphilic polymer solution on which genistein was loaded was loaded in a Franz diffusion cell on which the porcine skin was mounted, and the test was performed at 32° C. similar to a skin temperature for 24 hours. Skin tissue into which genistein was absorbed was pulverized and extracted to analyze the content of genistein absorbed into the skin tissue and the content of genistein absorbed into the acceptor solution through HPLC, and the results are shown in Table 3.

## polycaprolactone (B)-polyethylene glycol (A)-polycaprolactone (B) copolymer [Comparative Example 1]
  Skin penetration amount: 0.15 μg/cm^2
  Skin penetration ratio: 0.09%
